Converted amounts (≈) assume the structure as drawn. Read-outs that look alike come from different tables or passages of the source. Residues, ends and D or L forms follow the SMILES beside them. *: point of attachment. Octanoyl = CCCCCCCC(=O)*
Experiments:
P. aeruginosa PAO1 = type: cell-based, Pseudomonas aeruginosa; details: PAO1, 18 h
Experimental: (§1) The in vitro antibacterial activity of the UTBLPs was assessed against wild-type and clinically isolated bacterial strains. To obtain the MIC of the compounds, the microbroth dilution susceptibility assay was performed according to the Clinical and Laboratory Standards Institute (CLSI, Wayne, PA, USA) guidelines and as previously described. Briefly, the compounds at varying concentrations were incubated with bacterial inoculum (5 × 10^5 CFU/mL final concentration) at 37 °C for 18 h. Growth in the form of turbidity was confirmed using an EMax Plus microplate reader (Molecular Devices, San Jose, CA, USA) at 590 nm.

A. baumannii ATCC 17978 [1] = type: cell-based, Acinetobacter baumannii; details: ATCC 17978, 18 h
Experimental: as §1

E. coli ATCC 25922 [2] = type: cell-based, Escherichia coli; details: ATCC 25922, 18 h
Experimental: as §1

A. baumannii AB027 [3] = assay: microbe, parasite or virus in culture; type: cell-based, Acinetobacter baumannii; details: AB027, 18 h
Procedure, shortened: (§2)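 MIC was determined by broth microdilution following CLSI guidelines. Serially varied compound concentrations were incubated with bacterial inoculum at 5 × 10^5 CFU/mL (final) for 18 h at 37 °C. Growth was scored as turbidity by absorbance at 590 nm.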

A. baumannii AB92247 = assay: microbe, parasite or virus in culture; type: cell-based, Acinetobacter baumannii; details: AB92247, 18 h
Procedure, shortened: as §2

E. coli 94393 = assay: microbe, parasite or virus in culture; type: cell-based, Escherichia coli; details: 94393, 18 h
Procedure, shortened: as §2

E. coli 94474 = assay: microbe, parasite or virus in culture; type: cell-based, Escherichia coli; details: 94474, 18 h
Procedure, shortened: as §2

E. cloacae 118564 = assay: microbe, parasite or virus in culture; type: cell-based, Enterobacter cloacae; details: 118564, 18 h
Procedure, shortened: as §2

A. baumannii 92247 = type: cell-based, Acinetobacter baumannii; details: for MICUTBLP: UTBLP alone
Procedure, shortened: (§3)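 Values derive from a two-agent checkerboard with an 18 h, 37 °C incubation. FICI cut-offs: ≤0.5 synergy, 0.5–4 additive, >4 antagonism.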

A. baumannii AB027 [4] = type: cell-based, Acinetobacter baumannii; details: for MICUTBLP: UTBLP alone
Procedure, shortened: as §3

A. baumannii ATCC 17978 [5] = type: cell-based, Acinetobacter baumannii; details: for MICUTBLP: UTBLP alone
Procedure, shortened: as §3

E. coli ATCC 25922 [6] = type: cell-based, Escherichia coli; details: for MICUTBLP: UTBLP alone
Procedure, shortened: as §3

MRSA ATCC 33592 = type: cell-based, Staphylococcus aureus
Procedure, shortened: as §3

S. aureus ATCC 29213 = type: cell-based, Staphylococcus aureus
Procedure, shortened: as §3

MRSE 61589 = type: cell-based, Staphylococcus epidermidis
Procedure, shortened: as §3

MSSE 81388 = type: cell-based, Staphylococcus epidermidis
Procedure, shortened: as §3

[7] = UTBLP in combination with novobiocin
[8] = UTBLP in combination with rifampicin
[9] = novobiocin in combination with the UTBLP
[10] = rifampicin in combination with the UTBLP
[11] = UTBLP in combination with chloramphenicol
[12] = UTBLP in combination with niclosamide
[13] = chloramphenicol in combination with the UTBLP
[14] = niclosamide in combination with the UTBLP
[15] = UTBLP alone, plate with chloramphenicol

## CCCCCCCC(=O)NCCCC[C@H](NC(=O)CCCCCCC)C(=O)N[C@@H](CCCCN)C(=O)N[C@@H](CCCCN)C(=O)N[C@@H](CCCCN)C(=O)N[C@@H](CCCCN)C(N)=O [UTBLP 5] (Octanoyl-K(Octanoyl)KKKK-NH2)
P. aeruginosa PAO1
  MIC: >128 µg/mL
A. baumannii ATCC 17978 [1]
  MIC: 64 µg/mL (≈ 70.3 µM)
E. coli ATCC 25922 [2]
  MIC: 64 µg/mL (≈ 70.3 µM)
A. baumannii AB027 [3]
  MIC: 128 µg/mL (≈ 141 µM)
A. baumannii AB92247
  MIC: 32 µg/mL (≈ 35.2 µM)
E. coli 94393
  MIC: 32 µg/mL (≈ 35.2 µM)
E. coli 94474
  MIC: 128 µg/mL (≈ 141 µM)
E. cloacae 118564
  MIC: > 128 µg/mL
A. baumannii 92247; UTBLP + novobiocin
  Interpretation: Synergy (FICI ≤ 0.5 is synergistic)
A. baumannii 92247; UTBLP + rifampicin
  Interpretation: Synergy (FICI ≤ 0.5 is synergistic)
A. baumannii 92247; plate with novobiocin
  MICUTBLP: 32 µg/mL
A. baumannii 92247; plate with rifampicin
  MICUTBLP: 32 µg/mL
A. baumannii 92247; [7]
  MICUTBLP [MICcombo]: 1 µg/mL
A. baumannii 92247; [8]
  MICUTBLP [MICcombo]: 2 µg/mL
A. baumannii 92247; [9]
  MICantibiotic [MICcombo]: 0.125 µg/mL
A. baumannii 92247; [10]
  MICantibiotic [MICcombo]: 0.063 µg/mL
A. baumannii AB027 [4]; UTBLP + novobiocin
  Interpretation: Synergy (FICI ≤ 0.5 is synergistic)
A. baumannii AB027 [4]; UTBLP + rifampicin
  Interpretation: Synergy (FICI ≤ 0.5 is synergistic)
A. baumannii AB027 [4]; plate with novobiocin
  MICUTBLP: 128 µg/mL
A. baumannii AB027 [4]; plate with rifampicin
  MICUTBLP: 128 µg/mL
A. baumannii AB027 [4]; [7]
  MICUTBLP [MICcombo]: 1 µg/mL
A. baumannii AB027 [4]; [8]
  MICUTBLP [MICcombo]: 2 µg/mL
A. baumannii AB027 [4]; [9]
  MICantibiotic [MICcombo]: 0.25 µg/mL
A. baumannii AB027 [4]; [10]
  MICantibiotic [MICcombo]: 0.016 µg/mL
A. baumannii ATCC 17978 [5]; UTBLP + chloramphenicol
  Interpretation: Additive (0.5 < x ≤ 4 is additive)
A. baumannii ATCC 17978 [5]; UTBLP + niclosamide
  Interpretation: Synergy (FICI ≤ 0.5 is synergistic)
A. baumannii ATCC 17978 [5]; UTBLP + novobiocin
  Interpretation: Synergy (FICI ≤ 0.5 is synergistic)
A. baumannii ATCC 17978 [5]; UTBLP + rifampicin
  Interpretation: Synergy (FICI ≤ 0.5 is synergistic)
A. baumannii ATCC 17978 [5]; plate with chloramphenicol
  MICUTBLP: 64 µg/mL
A. baumannii ATCC 17978 [5]; plate with niclosamide
  MICUTBLP: 64 µg/mL
A. baumannii ATCC 17978 [5]; plate with novobiocin
  MICUTBLP: 64 µg/mL
A. baumannii ATCC 17978 [5]; plate with rifampicin
  MICUTBLP: 64 µg/mL
A. baumannii ATCC 17978 [5]; [11]
  MICUTBLP [MICcombo]: 4 µg/mL
A. baumannii ATCC 17978 [5]; [12]
  MICUTBLP [MICcombo]: 0.5 µg/mL
A. baumannii ATCC 17978 [5]; [7]
  MICUTBLP [MICcombo]: 2 µg/mL
A. baumannii ATCC 17978 [5]; [8]
  MICUTBLP [MICcombo]: 1 µg/mL
A. baumannii ATCC 17978 [5]; [13]
  MICantibiotic [MICcombo]: 32 µg/mL
A. baumannii ATCC 17978 [5]; [14]
  MICantibiotic [MICcombo]: 1 µg/mL
A. baumannii ATCC 17978 [5]; [9]
  MICantibiotic [MICcombo]: 0.125 µg/mL
A. baumannii ATCC 17978 [5]; [10]
  MICantibiotic [MICcombo]: 0.031 µg/mL
E. coli ATCC 25922 [6]; UTBLP + chloramphenicol
  Interpretation: Synergy (FICI ≤ 0.5 is synergistic)
E. coli ATCC 25922 [6]; UTBLP + niclosamide
  Interpretation: Synergy (FICI ≤ 0.5 is synergistic)
E. coli ATCC 25922 [6]; UTBLP + novobiocin
  Interpretation: Synergy (FICI ≤ 0.5 is synergistic)
E. coli ATCC 25922 [6]; UTBLP + rifampicin
  Interpretation: Synergy (FICI ≤ 0.5 is synergistic)
E. coli ATCC 25922 [6]; plate with chloramphenicol
  MICUTBLP: 64 µg/mL
E. coli ATCC 25922 [6]; plate with niclosamide
  MICUTBLP: 64 µg/mL
E. coli ATCC 25922 [6]; plate with novobiocin
  MICUTBLP: 64 µg/mL
E. coli ATCC 25922 [6]; plate with rifampicin
  MICUTBLP: 64 µg/mL
E. coli ATCC 25922 [6]; [11]
  MICUTBLP [MICcombo]: 16 µg/mL
E. coli ATCC 25922 [6]; [12]
  MICUTBLP [MICcombo]: 0.5 µg/mL
E. coli ATCC 25922 [6]; [7]
  MICUTBLP [MICcombo]: 1 µg/mL
E. coli ATCC 25922 [6]; [8]
  MICUTBLP [MICcombo]: 2 µg/mL
E. coli ATCC 25922 [6]; [13]
  MICantibiotic [MICcombo]: 0.25 µg/mL
E. coli ATCC 25922 [6]; [14]
  MICantibiotic [MICcombo]: 2 µg/mL
E. coli ATCC 25922 [6]; [9]
  MICantibiotic [MICcombo]: 0.5 µg/mL
E. coli ATCC 25922 [6]; [10]
  MICantibiotic [MICcombo]: 0.063 µg/mL
MRSA ATCC 33592; UTBLP + chloramphenicol
  Interpretation: Additive (0.5 < x ≤ 4 is additive)
MRSA ATCC 33592; [15]
  MICUTBLP: 64 µg/mL
MRSA ATCC 33592; [11]
  MICUTBLP [MICcombo]: 0.25 µg/mL
MRSA ATCC 33592; [13]
  MICchloramphenicol [MICcombo]: 64 µg/mL
S. aureus ATCC 29213; [15]
  MICUTBLP: 64 µg/mL
S. aureus ATCC 29213; [11]
  MICUTBLP [MICcombo]: 16 µg/mL
S. aureus ATCC 29213; [13]
  MICchloramphenicol [MICcombo]: 2 µg/mL
MRSE 61589; UTBLP + chloramphenicol
  Interpretation: Additive (0.5 < x ≤ 4 is additive)
MRSE 61589; [15]
  MICUTBLP: 8 µg/mL
MRSE 61589; [11]
  MICUTBLP [MICcombo]: 4 µg/mL
MRSE 61589; [13]
  MICchloramphenicol [MICcombo]: 4 µg/mL
MSSE 81388; UTBLP + chloramphenicol
  Interpretation: Additive (0.5 < x ≤ 4 is additive)
MSSE 81388; [15]
  MICUTBLP: 16 µg/mL
MSSE 81388; [11]
  MICUTBLP [MICcombo]: 8 µg/mL
MSSE 81388; [13]
  MICchloramphenicol [MICcombo]: 0.25 µg/mL

Reference: publication PMC8963254, “Effects of Lysine N-ζ-Methylation in Ultrashort Tetrabasic Lipopeptides (UTBLPs) on the Potentiation of Rifampicin, Novobiocin, and Niclosamide in Gram-Negative Bacteria” (Antibiotics, 2022)
